We go through nine molecules from USRE46511E1, “Fused pyrimidine derivatives for inhibition of tyrosine kinase activity” (HANMI SCIENCE CO., LTD., priority 2010, dated 2017).

In data set [1] the test system is NCI-H1975 (EGFR L858R/T790M). Kind of data set: Inhibition test for growth of cancer cell expressing EGFR (MTS), NCI-H1975. It counts as cell-based. To be noted: Homo sapiens; NCI-H1975 cells, 48 hours, MTS; read-out: GI50 NCI-H1975 EGFR L858R/T790M.
Protocol: A431 cell line was incubated in a high-glucose DMEM (Dulbecco's Modified Eagle's Medium) supplemented with 10% fetal bovine serum (FBS) and 1% penicillin/streptomycin (Gibco BRL), and HCC827 and NCI-H1975 cell lines were incubated in an RPMI medium supplemented with 10% FBS, 1% penicillin/streptomycin and 1% sodium pyruvate.
The cancer cell lines stored in a liquid nitrogen tank were each quickly thawed at 37° C., and centrifuged to remove the medium. The resulting cell pellet was mixed with a culture medium, incubated in a culture flask at 37° C. under 5% CO2 for 2 to 3 days, and the medium was removed. The remaining cells were washed with DPBS (Dulbecco's Phosphate Buffered Saline) and separated from the flask by using Tripsin-EDTA. […] 100 μl of the diluted cell solution was added to each well of a 96-well plate, and incubated at 37° C. under 5% CO2 for 1 day.
In case that the test compound was not soluble in DMSO, 1% HCl was added thereto and treated in a 40° C. water bath for 30 mins until a complete dissolution was attained. The DMSO solution containing test compound was diluted with a culture medium to a final concentration of 100 μM, and then diluted 10 times serially to 10^−6 μM (a final concentration of DMSO was less than 1%).
The medium was removed from each well of the 96-well plate. And then, 100 μl of a test compound solution was added to each well holding the cultured cells, and the plate was incubated at 37° C. under 5% CO2 for 72 hours (except that NCI-H1975 cells were incubated for 48 hours). After removing the medium from the plate, 50 μA of 10% trichloroacetic acid was added to each well, and the plate was kept at 4° C. for 1 hour to fix the cells to the bottom of the plate. The added 10% trichloroacetic acid solution was removed from each well, the plate was dried, 100 μA of an SRB (Sulforhodamine-B) dye solution at a concentration of 0.4% dissolved in 1% acetic acid was added thereto, and the resulting mixture was reacted for 10 mins at room temperature. After removing the dye solution, the plate was washed with water, and well dried. When the dye solution was not effectively removed by water, 1% acetic acid was used. 150 μA of 10 mM trisma base was added to each well, and the absorbance at 540 nm wavelength was determined with a microplate reader.
A further data set deals with A431 (EGFR WT). Put plainly: Inhibition test for growth of cancer cell expressing EGFR (SRB), A431.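 Also: cells in 96-well plates exposed to tenfold serial dilutions from 100 µM down to 10^−6 µM, DMSO under 1%, SRB staining read as absorbance at 540 nm.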 It counts as cell-based. To be noted: Homo sapiens, A-431; A431 cells, 72 hours, SRB; read-out: GI50 A431 EGFR WT.
The target of a further data set is T1, EGFR L858R/T790M (Homo sapiens, UniProt P00533, L858R/T790M).
T1 construct: purchased Invitrogen
T1 sequence (P00533 25-1210 T790M/L858R): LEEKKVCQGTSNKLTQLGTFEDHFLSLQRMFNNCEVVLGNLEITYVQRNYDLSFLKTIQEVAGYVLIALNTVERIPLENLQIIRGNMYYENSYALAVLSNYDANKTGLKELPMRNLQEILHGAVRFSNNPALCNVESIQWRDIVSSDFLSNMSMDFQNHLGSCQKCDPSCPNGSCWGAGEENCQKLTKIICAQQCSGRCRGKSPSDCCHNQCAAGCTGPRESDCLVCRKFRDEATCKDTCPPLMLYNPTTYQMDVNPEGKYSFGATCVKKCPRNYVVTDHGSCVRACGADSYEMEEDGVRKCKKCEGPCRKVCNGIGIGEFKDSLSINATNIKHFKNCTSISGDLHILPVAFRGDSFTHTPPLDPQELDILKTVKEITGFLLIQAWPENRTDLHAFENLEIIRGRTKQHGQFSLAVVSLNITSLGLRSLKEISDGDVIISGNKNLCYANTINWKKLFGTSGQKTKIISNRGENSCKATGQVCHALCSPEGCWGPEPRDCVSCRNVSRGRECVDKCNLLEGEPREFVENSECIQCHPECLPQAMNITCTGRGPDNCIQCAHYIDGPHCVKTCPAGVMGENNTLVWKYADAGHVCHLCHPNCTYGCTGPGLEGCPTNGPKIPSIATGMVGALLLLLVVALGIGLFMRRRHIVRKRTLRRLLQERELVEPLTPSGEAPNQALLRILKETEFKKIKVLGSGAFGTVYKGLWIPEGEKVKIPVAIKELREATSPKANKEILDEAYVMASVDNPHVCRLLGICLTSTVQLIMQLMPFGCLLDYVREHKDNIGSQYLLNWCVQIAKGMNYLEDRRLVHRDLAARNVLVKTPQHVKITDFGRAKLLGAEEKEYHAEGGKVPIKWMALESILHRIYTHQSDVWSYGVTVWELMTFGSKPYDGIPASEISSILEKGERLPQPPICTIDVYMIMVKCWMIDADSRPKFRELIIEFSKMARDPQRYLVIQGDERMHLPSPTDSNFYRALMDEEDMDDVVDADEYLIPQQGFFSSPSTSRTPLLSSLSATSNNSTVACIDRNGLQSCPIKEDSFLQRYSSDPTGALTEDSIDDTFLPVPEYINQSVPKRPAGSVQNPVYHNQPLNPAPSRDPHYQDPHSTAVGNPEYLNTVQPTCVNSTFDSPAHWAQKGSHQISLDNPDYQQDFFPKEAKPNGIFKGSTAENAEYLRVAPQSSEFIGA
Put plainly: z-lyte kinase assay, EGFR L858R/T790M. The class given is biochemical.

Another data set concerns the target T2, EGFR WT (Homo sapiens, UniProt P00533).
T2 construct: purchased Invitrogen
Put plainly: z-lyte kinase assay, EGFR WT. It counts as biochemical.

Data set [2] concerns HCC827 (EGFR DelE746_A750). Put plainly: Inhibition test for growth of cancer cell expressing EGFR (SRB), HCC827.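 Also: cells in 96-well plates exposed to tenfold serial dilutions from 100 µM, fixed with trichloroacetic acid, SRB-stained, absorbance read at 540 nm, DMSO under 1%.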 It counts as cell-based. To be noted: Homo sapiens, HCC827, 72 h, HCC827 cells, 72 hours, SRB; read-out: GI50 HCC827 EGFR DelE746_A750.
A further data set has as its target T3, JAK3 (Homo sapiens, UniProt P52333).
T3 construct: purchased Invitrogen
T3 sequence (P52333 1-1124): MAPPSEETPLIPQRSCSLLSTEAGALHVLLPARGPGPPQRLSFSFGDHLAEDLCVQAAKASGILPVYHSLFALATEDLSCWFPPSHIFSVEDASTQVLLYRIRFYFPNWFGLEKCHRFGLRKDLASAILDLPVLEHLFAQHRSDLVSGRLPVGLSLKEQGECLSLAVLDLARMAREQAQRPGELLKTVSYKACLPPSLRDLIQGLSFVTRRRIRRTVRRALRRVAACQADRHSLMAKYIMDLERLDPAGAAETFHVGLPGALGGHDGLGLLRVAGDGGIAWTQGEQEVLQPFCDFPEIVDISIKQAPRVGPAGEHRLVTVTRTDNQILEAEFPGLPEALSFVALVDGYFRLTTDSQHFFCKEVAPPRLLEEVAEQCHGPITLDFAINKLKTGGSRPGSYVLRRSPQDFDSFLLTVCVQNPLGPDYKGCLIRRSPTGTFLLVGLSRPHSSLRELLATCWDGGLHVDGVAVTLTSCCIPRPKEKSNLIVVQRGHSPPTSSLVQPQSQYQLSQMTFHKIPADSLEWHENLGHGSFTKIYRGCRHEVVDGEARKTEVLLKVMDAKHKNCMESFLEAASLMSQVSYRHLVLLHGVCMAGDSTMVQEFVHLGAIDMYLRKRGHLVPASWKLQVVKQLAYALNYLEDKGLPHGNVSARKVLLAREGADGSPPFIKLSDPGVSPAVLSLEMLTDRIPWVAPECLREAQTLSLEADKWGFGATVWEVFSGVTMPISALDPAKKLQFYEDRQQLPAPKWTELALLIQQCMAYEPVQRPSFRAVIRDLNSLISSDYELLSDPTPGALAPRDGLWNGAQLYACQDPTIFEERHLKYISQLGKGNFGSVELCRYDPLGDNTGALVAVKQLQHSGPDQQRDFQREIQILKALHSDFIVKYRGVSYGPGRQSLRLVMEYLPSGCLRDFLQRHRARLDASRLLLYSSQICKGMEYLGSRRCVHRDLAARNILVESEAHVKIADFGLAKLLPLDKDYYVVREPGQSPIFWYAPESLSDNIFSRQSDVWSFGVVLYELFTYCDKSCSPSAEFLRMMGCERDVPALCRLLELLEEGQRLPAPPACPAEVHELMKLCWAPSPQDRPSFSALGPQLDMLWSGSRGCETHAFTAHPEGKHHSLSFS
Put plainly: z-lyte kinase assay, JAK3. It counts as biochemical. The essentials:
(§1)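 Each kinase was mixed with peptide substrate, compound (dilution series made at 1–0.0001 μM in 4% DMSO) and ATP added from a 5~300 μM solution, then incubated 60 min at RT. After development reagent and stop solution, fluorescence was read at 400 nm excitation/520 nm emission and IC50 calculated.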

A further data set has as its target T4, BTK (Homo sapiens, UniProt Q06187).
T4 construct: purchased Invitrogen
Put plainly: z-lyte kinase assay, BTK. It counts as biochemical. Put shortly: as §1

The nature of data set [3]: Body weight change in nude mice xenografted with NCI-H1975 cancer cells. The class given is in vivo. As to conditions: for mBWL (maximum body weight loss): oral, one time a day for 10 days, measured on 10th day after administration. The protocol: (§2) . In the test, a tumor in the sixth generation isolated from an individual was cut into a size of 30 mg, and transplanted subcutaneously into right flanks of mice using a 12-gauge trocar. The volume of tumor (V) is calculated from following equation 1 after measuring a long diameter (L) and a short diameter (S) using a vernier caliper twice a week for 18 days of test. All test materials were orally administered one time a day for total 10 days, and the tumor growth inhibition rate (IR: tumor growth inhibition rate (%) calculated based on a vehicle-treated control) and the maximum body weight loss (mBWL: maximum body weight loss calculated based on the body weight just before administration) were calculated using following equations 2 and 3. V=L×S^2/2 <Equation 1>
wherein, RTG is a relative tumor growth, which is the mean tumor volume on a particular day based on […] mean tumor volume. mBWL(%)=(1−(mean body weight on day x/mean body weight just before administration))×100 <Equation 3>
wherein, day x is a day on which the body weight loss is largest during the test.

The test system of the next data set is NCI-H1975 cancer cells. Kind of data set: Anticancer efficacy test in nude mice xenografted with NCI-H1975 cancer cells. As to conditions: oral, one time a day for 10 days, measured on 16th day after administration. It counts as in vivo. How it is done:
NCI-H1975 cell (lung cancer cell) was purchased from American Type Culture Collection (ATCC). After formation of tumor by subcutaneous injection with 1×10^8 cells/0.3 mL of tumor cell suspension on the back of mice, passages were carried out and tumor in at least third generation was used in the test.
as §2, with “In” for “. In”
wherein, L is a long diameter and S is a short diameter. IR(%)=(1−(RTG of the treatment group of test material)/(RTG of the control group))×100 <Equation 2>

T4 sequence (Q06187 whole entry): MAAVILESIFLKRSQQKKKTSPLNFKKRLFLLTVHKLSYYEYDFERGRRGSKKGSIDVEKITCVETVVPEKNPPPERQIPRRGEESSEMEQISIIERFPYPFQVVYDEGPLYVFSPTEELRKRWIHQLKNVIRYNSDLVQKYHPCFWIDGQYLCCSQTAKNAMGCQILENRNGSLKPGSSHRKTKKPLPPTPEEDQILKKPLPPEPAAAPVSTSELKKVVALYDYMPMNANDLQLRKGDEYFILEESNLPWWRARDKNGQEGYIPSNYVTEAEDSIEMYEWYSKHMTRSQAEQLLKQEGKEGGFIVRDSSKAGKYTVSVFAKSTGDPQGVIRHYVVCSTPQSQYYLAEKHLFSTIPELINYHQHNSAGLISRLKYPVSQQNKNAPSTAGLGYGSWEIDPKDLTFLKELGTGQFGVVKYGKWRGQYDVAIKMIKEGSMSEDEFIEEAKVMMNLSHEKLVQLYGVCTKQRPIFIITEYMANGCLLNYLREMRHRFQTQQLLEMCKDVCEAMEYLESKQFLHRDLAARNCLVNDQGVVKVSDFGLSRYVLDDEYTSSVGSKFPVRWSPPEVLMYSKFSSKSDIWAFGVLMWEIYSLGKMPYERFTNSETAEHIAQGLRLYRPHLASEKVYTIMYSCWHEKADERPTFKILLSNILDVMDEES
T2 sequence (P00533 25-1210): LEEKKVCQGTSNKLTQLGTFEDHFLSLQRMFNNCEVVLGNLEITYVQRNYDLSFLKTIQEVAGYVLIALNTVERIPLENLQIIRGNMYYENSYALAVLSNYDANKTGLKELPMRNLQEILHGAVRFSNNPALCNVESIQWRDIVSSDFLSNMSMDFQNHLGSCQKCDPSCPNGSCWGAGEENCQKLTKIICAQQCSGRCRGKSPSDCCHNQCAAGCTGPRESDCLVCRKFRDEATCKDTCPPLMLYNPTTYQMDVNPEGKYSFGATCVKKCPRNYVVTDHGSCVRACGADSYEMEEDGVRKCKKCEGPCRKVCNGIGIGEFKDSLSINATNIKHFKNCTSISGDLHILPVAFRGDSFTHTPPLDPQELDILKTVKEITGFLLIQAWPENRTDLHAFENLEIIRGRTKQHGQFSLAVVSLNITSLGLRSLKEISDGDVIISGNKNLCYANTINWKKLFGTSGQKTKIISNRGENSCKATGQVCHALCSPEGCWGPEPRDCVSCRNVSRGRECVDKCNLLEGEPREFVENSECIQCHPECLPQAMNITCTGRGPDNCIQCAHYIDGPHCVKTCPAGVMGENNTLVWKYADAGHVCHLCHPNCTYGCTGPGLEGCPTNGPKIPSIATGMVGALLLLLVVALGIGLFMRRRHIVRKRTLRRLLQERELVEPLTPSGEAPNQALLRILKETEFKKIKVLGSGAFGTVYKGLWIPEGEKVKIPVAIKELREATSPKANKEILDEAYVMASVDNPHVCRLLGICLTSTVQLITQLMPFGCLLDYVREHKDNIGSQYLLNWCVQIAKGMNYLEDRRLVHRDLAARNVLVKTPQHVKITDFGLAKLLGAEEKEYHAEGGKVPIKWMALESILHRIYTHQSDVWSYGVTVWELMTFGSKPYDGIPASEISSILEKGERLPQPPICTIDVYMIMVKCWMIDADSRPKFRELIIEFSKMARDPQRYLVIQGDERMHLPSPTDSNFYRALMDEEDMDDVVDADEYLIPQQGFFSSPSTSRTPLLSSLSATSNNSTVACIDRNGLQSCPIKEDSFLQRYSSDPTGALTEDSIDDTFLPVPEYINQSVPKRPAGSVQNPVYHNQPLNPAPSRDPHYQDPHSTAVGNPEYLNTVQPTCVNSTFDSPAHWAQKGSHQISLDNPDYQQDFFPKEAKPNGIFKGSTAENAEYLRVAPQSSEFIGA

As usually defined, the IC50 is the midpoint of a concentration-inhibition curve. As for `C=CC(=O)Nc1cccc(Nc2nc(Nc3ccc(N4CCN(C)CC4)cc3)nc3ccsc23)c1` [Example 206, N-(3-(2-(4-(4-methylpiperazin-1-yl)phenylamino)thieno[3,2-d]pyrimidin-4-ylamino)phenyl)acrylamide], the GI50 in [1] is less than 50 nM; with A431 (EGFR WT) it was more than 1000 nM; in data set [2] it was less than 50 nM. In addition, the values for the IC50 at EGFR L858R/T790M and at EGFR WT were less than 50 nM and 100 to 1000 nM, respectively.
As to `C=CC(=O)Nc1cccc(Oc2nc(Nc3ccc(N4CCOCC4)c(F)c3)nc3ccsc23)c1` [Example 122], the GI50 is less than 50 nM in [1], more than 1000 nM in the data set with A431 (EGFR WT) and less than 50 nM in [2]. The IC50 on EGFR L858R/T790M was less than 50 nM; against EGFR WT, more than 1000 nM.
On to `C=CC(=O)Nc1cccc(Oc2nc(Nc3ccc(N4CCC(N5CCCCC5)CC4)cc3)nc3ccsc23)c1` [Example 48], for which the GI50 in data set [1] was less than 50 nM; in the data set with A431 (EGFR WT) it was more than 1000 nM; in [2], less than 50 nM. In addition, the IC50 against EGFR L858R/T790M was less than 50 nM; on EGFR WT, 100 to 1000 nM; at JAK3, not above 50 nM; against BTK, not above 50 nM.
Take `C=CC(=O)Nc1cccc(Oc2nc(Nc3ccc(C4CCCN(C)C4)cc3OC)nc3ccsc23)c1` (stereo not drawn) [Example 115]: the GI50 in data set [1] and in data set [2] was less than 50 nM each time. For the same molecule, the IC50 at EGFR L858R/T790M is less than 50 nM; against EGFR WT it was more than 1000 nM.
On to `C=CC(=O)Nc1cccc(Oc2nc(Nc3ccc(N4CCN(C)CC4)cc3OC)nc3ccsc23)c1` [Example 2], for which the GI50 is 50 to 100 nM in [1], more than 1000 nM in the data set on A431 (EGFR WT) and 50 to 100 nM in [2]. For the same molecule, the values for the IC50 against EGFR L858R/T790M and against EGFR WT were less than 50 nM and more than 1000 nM, respectively. Besides, in [3] (70 mg/kg), the “mBWL (maximum body weight loss)” value is −7.6%. For the same molecule, the weight gain in [3] (in therapeutically equivalent dose (70 mg/kg), NCI-H1975 xenografted nude mice) was determined as 7.6%. Besides, the “IR (tumor growth inhibition rate)” value in the data set with NCI-H1975 cancer cells (70 mg/kg) worked out at 75%.
In the case of `CN(C)C/C=C/C(=O)Nc1cc2c(Nc3ccc(F)c(Cl)c3)ncnc2cc1O[C@H]1CCOC1` [BIBW2992, Afatinib, reference compound], in [3] (50 mg/kg), the “mBWL (maximum body weight loss)” value stood at 9.1%. In addition, in the data set with NCI-H1975 cancer cells (50 mg/kg), the “IR (tumor growth inhibition rate)” value worked out at 77%.
For `C=CC(=O)Nc1cccc(Nc2nc(Nc3ccc(N4CCN(C)CC4)c(F)c3)nc3ccsc23)c1` [Example 215], the GI50 in [1] and in [2] was less than 50 nM each time. Moreover, the figures for the IC50 against EGFR L858R/T790M and against EGFR WT were less than 50 nM and more than 1000 nM, respectively.
For `C=CC(=O)Nc1cccc(Oc2nc(Nc3ccc(CN4CCN(C)CC4)cc3)nc3ccsc23)c1` [Example 182], the GI50 in data set [1] is less than 50 nM; with A431 (EGFR WT) it was more than 1000 nM; in data set [2], less than 50 nM. Moreover, the IC50 against JAK3 was 50 to 100 nM; against BTK, not above 50 nM.
For the molecule `C=CC(=O)Nc1cccc(Oc2nc(Nc3ccc(N4CCN(C)CC4)c(F)c3)nc3ccsc23)c1` [Example 3], the values for the GI50 (in [1]; with A431 (EGFR WT); in [2]) were less than 50 nM, more than 1000 nM and less than 50 nM, respectively. Further, the 50% inhibitory concentration (IC50) on JAK3 was 50 to 100 nM; at BTK it was not above 50 nM.
